Source: patent US12258342B2, “Class of DNA gyrase and/or topoisomerase IV inhibitors with activity against gram-positive and gram-negative bacteria” (Univerza v Ljubljani, priority 2018, dated 2025)
Converted amounts (≈) assume the structure as drawn. Blank lines part the entries; values can stand above or below the compound they belong to.

Key:
[1] = biological target: E. coli DNA gyrase (Escherichia coli (strain K12), UniProt P0AES6); assay: DNA gyrase inhibition assay (Inspiralis, streptavidin-coated plates); format: biochemical
Experimental: (§1) Inhibitory activities for compounds of the present invention were determined on E. coli and S. aureus DNA gyrase and topoisomerase IV in an assay from Inspiralis on streptavidin-coated 96-well microtiter plates from Thermo scientific Pierce. […] After washing off the unbound oligonucleotide, the enzyme test was performed. […] Reaction solutions were incubated at 37° C. for 30 min. After that, the TF buffer (50 mM NaOAc with pH 5.0, 50 mM NaCl and 50 mM MgCl2) was added to terminate the enzymatic reaction. After additional incubation for 30 min at rt, during which biotin-oligonucleotide-plasmid triplex was formed, the unbound plasmid was washed off using TF buffer and SybrGOLD in T10 buffer (10 mM Tris HCl with pH 8.0 and 1 mM EDTA) was added. […] GraphPad Prism 6.0 software was used to calculate the IC50 values. The result is given as the average value of three independent measurements. […] Chemoth.

[2] = biological target: S. aureus DNA gyrase (Staphylococcus aureus, UniProt P0A0K8); assay: biochemical; details: read-out: IC50 DNA gyrase from S. aureus
Experimental: as §1

[3] = biological target: E. coli topoisomerase IV (Escherichia coli (strain K12), UniProt P20083); assay: Topoisomerase IV inhibition assay (Inspiralis, streptavidin-coated plates); format: biochemical
Sequence of E. coli topoisomerase IV (P20083 whole entry, looked up): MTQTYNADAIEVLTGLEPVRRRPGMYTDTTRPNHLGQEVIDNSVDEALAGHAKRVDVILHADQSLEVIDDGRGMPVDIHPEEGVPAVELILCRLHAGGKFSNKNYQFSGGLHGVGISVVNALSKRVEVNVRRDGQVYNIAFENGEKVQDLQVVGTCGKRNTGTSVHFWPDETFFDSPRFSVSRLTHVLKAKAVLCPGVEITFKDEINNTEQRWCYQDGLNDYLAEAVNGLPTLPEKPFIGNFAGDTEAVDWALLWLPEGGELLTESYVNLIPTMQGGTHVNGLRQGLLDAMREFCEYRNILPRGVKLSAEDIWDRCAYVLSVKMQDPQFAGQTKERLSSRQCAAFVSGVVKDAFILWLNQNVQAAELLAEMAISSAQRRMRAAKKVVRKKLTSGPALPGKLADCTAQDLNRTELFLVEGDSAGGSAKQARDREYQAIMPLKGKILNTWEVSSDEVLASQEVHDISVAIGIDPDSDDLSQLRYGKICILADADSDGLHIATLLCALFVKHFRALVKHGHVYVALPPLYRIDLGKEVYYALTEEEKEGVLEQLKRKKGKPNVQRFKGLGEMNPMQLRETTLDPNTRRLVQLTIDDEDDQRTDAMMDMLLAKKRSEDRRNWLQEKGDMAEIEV
Sequence of E. coli topoisomerase IV (P0AFI2 whole entry partner, looked up): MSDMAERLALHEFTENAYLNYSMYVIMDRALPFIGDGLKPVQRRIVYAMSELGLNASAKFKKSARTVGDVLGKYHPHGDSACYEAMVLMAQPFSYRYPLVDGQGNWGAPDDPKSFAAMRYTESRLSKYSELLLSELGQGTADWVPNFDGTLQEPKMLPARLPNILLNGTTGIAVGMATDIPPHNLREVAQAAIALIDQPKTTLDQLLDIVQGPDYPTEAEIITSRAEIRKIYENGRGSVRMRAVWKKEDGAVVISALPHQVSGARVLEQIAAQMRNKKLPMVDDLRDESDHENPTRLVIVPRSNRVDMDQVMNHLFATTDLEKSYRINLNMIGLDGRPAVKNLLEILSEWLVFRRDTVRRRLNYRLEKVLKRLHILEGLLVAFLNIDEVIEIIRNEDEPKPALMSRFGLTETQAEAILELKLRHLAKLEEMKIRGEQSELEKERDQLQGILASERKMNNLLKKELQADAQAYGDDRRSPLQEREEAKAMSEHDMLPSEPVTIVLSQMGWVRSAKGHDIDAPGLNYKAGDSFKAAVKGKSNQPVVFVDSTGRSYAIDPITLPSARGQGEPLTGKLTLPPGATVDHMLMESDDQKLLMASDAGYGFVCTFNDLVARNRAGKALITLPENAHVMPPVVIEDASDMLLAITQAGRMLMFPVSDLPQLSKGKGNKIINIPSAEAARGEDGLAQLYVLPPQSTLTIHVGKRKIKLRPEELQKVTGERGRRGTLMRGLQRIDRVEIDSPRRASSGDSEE
Experimental: Inhibitory activities for compounds of the present invention were determined on E. coli and S. aureus DNA gyrase and topoisomerase IV in an assay from Inspiralis on streptavidin-coated 96-well microtiter plates from Thermo scientific Pierce. […] After washing off the unbound oligonucleotide, the enzyme test was performed. […] Reaction solutions were incubated at 37° C. for 30 min. After that, the TF buffer (50 mM NaOAc with pH 5.0, 50 mM NaCl and 50 mM MgCl2) was added to terminate the enzymatic reaction. After additional incubation for 30 min at rt, during which biotin-oligonucleotide-plasmid triplex was formed, the unbound plasmid was washed off using TF buffer and SybrGOLD in T10 buffer (10 mM Tris HCl with pH 8.0 and 1 mM EDTA) was added. […] Initial screening was done at 100 or 10 nM concentration of inhibitors against E. coli DNA gyrase or 1 μM or 100 nM concentration against S. aureus DNA gyrase and E. coli and S. aureus topo IV. […] GraphPad Prism 6.0 software was used to calculate the IC50 values. The result is given as the average value of three independent measurements. […] Chemoth.

[4] = biological target: S. aureus topoisomerase IV (Staphylococcus aureus, UniProt P0C1S7); assay: as above; format: biochemical; details: read-out: IC50 DNA topoisomerase IV from S. aureus
Experimental: Inhibitory activities for compounds of the present invention were determined on E. coli and S. aureus DNA gyrase and topoisomerase IV in an assay from Inspiralis on streptavidin-coated 96-well microtiter plates from Thermo scientific Pierce. First, the plates were rehydrated with buffer (20 mM Tris-HCl with pH 7.6, 0.01% w/v BSA, 0.05% v/v Tween 20, 137 mM NaCl) and the biotinylated oligonucleotide was then immobilized. After washing off the unbound oligonucleotide, the enzyme test was performed. […] Reaction solutions were incubated at 37° C. for 30 min. After that, the TF buffer (50 mM NaOAc with pH 5.0, 50 mM NaCl and 50 mM MgCl2) was added to terminate the enzymatic reaction. After additional incubation for 30 min at rt, during which biotin-oligonucleotide-plasmid triplex was formed, the unbound plasmid was washed off using TF buffer and SybrGOLD in T10 buffer (10 mM Tris HCl with pH 8.0 and 1 mM EDTA) was added. The fluorescence was measured with a microplate reader (BioTek Synergy H4, excitation: 485 nm, emission: 535 nm). […]. GraphPad Prism 6.0 software was used to calculate the IC50 values. The result is given as the average value of three independent measurements. […]. Chemoth. 66, 2061-2096 (2011))) for E. coli and S. aureus topoisomerase IV) was used.

[5] = system: S. aureus ATCC 29213; assay: Microbroth dilution MIC (CLSI); details: Staphylococcus aureus, ATCC29213, read-out: MIC (μg/mL) S. aureus ATCC 29213
[6] = system: E. faecium ATCC 35667; assay: Microbroth dilution MIC (CLSI); details: Enterococcus faecium, ATCC35667, read-out: MIC (μg/mL) E. faecium ATCC 35667
[7] = system: E. faecalis ATCC 29212; assay: Microbroth dilution MIC (CLSI); details: Enterococcus faecalis, ATCC29212, read-out: MIC (μg/mL) E. faecalis ATCC 29212
[8] = system: E. coli ATCC 25922; assay: Microbroth dilution MIC (CLSI); details: Escherichia coli, ATCC25922, read-out: MIC (μg/mL) E. coli ATCC 25922

Compound: Cc1[nH]c(C(=O)Nc2nc3c(OCCN4CCOCC4)cc(C(=O)O)cc3s2)c(Cl)c1Cl.Cl [Example 10, 4-(2-((6-carboxy-2-(3,4-dichloro-5-methyl-1H-pyrrole-2-carboxamido)benzo[d]thiazol-4-yl)oxy)ethyl)morpholin-4-ium chloride]
IC50 [1]: < 5 nM
IC50 [2]: < 20 nM
IC50 [3]: < 400 nM
IC50 [4]: < 400 nM
MIC [5]: > 64 µg/mL
MIC [6]: 40.2 µg/mL
MIC [7]: 8 µg/mL
MIC [8]: > 64 µg/mL

Compound: Cc1[nH]c(C(=O)Nc2nc3cc(O)c(C(=O)O)cc3s2)c(Cl)c1Cl [Example 13, 2-(3,4-dichloro-5-methyl-1H-pyrrole-2-carboxamido)-5-hydroxybenzo[d]thiazole-6-carboxylic acid]
IC50 [1]: < 5 nM
MIC [5]: 16 µg/mL (≈ 41.4 µM)
MIC [6]: 1.21 µg/mL (≈ 3.13 µM)
MIC [7]: 1 µg/mL (≈ 2.59 µM)
MIC [8]: > 64 µg/mL

Compound: Cc1[nH]c(C(=O)Nc2nc3ccc(C(=O)O)c(Cl)c3s2)c(Cl)c1Cl [Example 14, 7-chloro-2-(3,4-dichloro-5-methyl-1H-pyrrole-2-carboxamido)benzo[d]thiazole-6-carboxylic acid]
IC50 [1]: 310 ± 30 nM
MIC [5]: > 64 µg/mL
MIC [6]: > 64 µg/mL
MIC [7]: > 64 µg/mL
MIC [8]: > 64 µg/mL

Compound: O=C(O)c1ccc2nc(N(Cc3ccccc3)C(=O)c3cc(Br)c(Br)[nH]3)sc2c1 [Example 15, 2-(N-benzyl-4,5-dibromo-1H-pyrrole-2-carboxamido)benzo[d]thiazole-6-carboxylic acid]
IC50 [1]: 5.1 ± 1.3 nM
MIC [5]: 0.42 µg/mL (≈ 0.785 µM)
MIC [6]: 0.83 µg/mL (≈ 1.55 µM)
MIC [7]: 0.21 µg/mL (≈ 0.392 µM)
MIC [8]: > 64 µg/mL

Compound: Cc1[nH]c(C(=O)N(Cc2ccccc2)c2nc3ccc(C(=O)O)cc3s2)c(Cl)c1Cl [Example 16, 2-(N-benzyl-3,4-dichloro-5-methyl-1H-pyrrole-2-carboxamido)benzo[d]thiazole-6-carboxylic acid]
IC50 [1]: < 5 nM
MIC [5]: ≤ 0.0312 µg/mL
MIC [6]: 0.36 µg/mL (≈ 0.782 µM)
MIC [7]: ≤ 0.0312 µg/mL
MIC [8]: 64 µg/mL (≈ 139 µM)

Compound: Cc1[nH]c(C(=O)Nc2nc3ccc(-c4nnn[nH]4)cc3s2)c(Cl)c1Cl [Example 17, N-(6-(1H-tetrazol-5-yl)benzo[d]thiazol-2-yl)-3,4-dichloro-5-methyl-1H-pyrrole-2-carboxamide]
IC50 [1]: < 5 nM
MIC [5]: 16 µg/mL (≈ 40.6 µM)
MIC [6]: 1.23 µg/mL (≈ 3.12 µM)
MIC [7]: 1 µg/mL (≈ 2.54 µM)
MIC [8]: > 64 µg/mL

Compound: Cc1[nH]c(C(=O)Nc2nc3ccc(C(N)=O)cc3s2)c(Cl)c1Cl [Example 18, 2-(3,4-dichloro-5-methyl-1H-pyrrole-2-carboxamido)benzo[d]thiazole-6-carboxamide]
IC50 [1]: 11 ± 2 nM
MIC [5]: 1.16 µg/mL (≈ 3.14 µM)
MIC [6]: > 64 µg/mL
MIC [7]: > 64 µg/mL
MIC [8]: > 64 µg/mL

Compound: O=C(NO)c1ccc2nc(NC(=O)c3cc(Br)c(Br)[nH]3)sc2c1 [Example 19, 2-(4,5-dibromo-1H-pyrrole-2-carboxamido)-N-hydroxybenzo[d]thiazole-6-carboxamide]
IC50 [1]: 89 ± 20 nM
MIC [5]: > 64 µg/mL
MIC [6]: > 64 µg/mL
MIC [7]: 64 µg/mL (≈ 139 µM)
MIC [8]: > 64 µg/mL

Compound: Cc1[nH]c(C(=O)Nc2nc3ccc(C(=O)NO)cc3s2)c(Cl)c1Cl [Example 20, 2-(3,4-dichloro-5-methyl-1H-pyrrole-2-carboxamido)-N-hydroxybenzo[d]thiazole-6-carboxamide]
IC50 [1]: 280 ± 10 nM
MIC [5]: 64 µg/mL (≈ 166 µM)
MIC [6]: 38.5 µg/mL (≈ 100 µM)
MIC [7]: 0.5 µg/mL (≈ 1.3 µM)
MIC [8]: > 64 µg/mL

Compound: O=C(O)CCNC(=O)c1ccc2nc(NC(=O)c3cc(Br)c(Br)[nH]3)sc2c1 [Example 21, 3-(2-(4,5-dibromo-1H-pyrrole-2-carboxamido)benzo[d]thiazole-6-carboxamido)propanoic acid]
IC50 [1]: 12 ± 5 nM
MIC [5]: > 64 µg/mL
MIC [6]: > 64 µg/mL
MIC [7]: > 64 µg/mL
MIC [8]: > 64 µg/mL

Compound: Cc1[nH]c(C(=O)Nc2nc3ccc(C(=O)NCCC(=O)O)cc3s2)c(Cl)c1Cl [Example 22, 3-(2-(3,4-dichloro-5-methyl-1H-pyrrole-2-carboxamido)benzo[d]thiazole-6-carboxamido)propanoic acid]
IC50 [1]: 7 ± 0.9 nM
MIC [5]: 32 µg/mL (≈ 72.5 µM)
MIC [6]: 5.52 µg/mL (≈ 12.5 µM)
MIC [7]: 2 µg/mL (≈ 4.53 µM)
MIC [8]: > 64 µg/mL

Compound: Cc1[nH]c(C(=O)Nc2nc3ccc(C(=O)NCC(=O)O)cc3s2)c(Cl)c1Cl [Example 23, (2-(3,4-dichloro-5-methyl-1H-pyrrole-2-carboxamido)benzo[d]thiazole-6-carbonyl)glycine]
IC50 [1]: 7.1 ± 3.2 nM
IC50 [2]: < 20 nM
IC50 [3]: < 400 nM
IC50 [4]: < 400 nM
MIC [5]: 64 µg/mL (≈ 150 µM)
MIC [7]: 16 µg/mL (≈ 37.4 µM)
MIC [8]: > 64 µg/mL

Compound: Cc1[nH]c(C(=O)Nc2nc3c(OCc4cccc(C(=O)O)c4)cc(C(=O)O)cc3s2)c(Cl)c1Cl [Example 24, 4-((3-carboxybenzyl)oxy)-2-(3,4-dichloro-5-methyl-1H-pyrrole-2-carboxamido)benzo[d]thiazole-6-carboxylic acid]
IC50 [1]: < 5 nM
IC50 [2]: < 20 nM
IC50 [3]: < 400 nM
IC50 [4]: < 400 nM
MIC [5]: > 64 µg/mL
MIC [7]: 1.5 µg/mL (≈ 2.88 µM)
MIC [8]: > 64 µg/mL

IC50 [2]: < 20 nM
IC50 [4]: < 400 nM
MIC [5]: 0.0625 µg/mL (≈ 0.126 µM)
MIC [7]: 0.001 µg/mL (≈ 0.00202 µM)
MIC [8]: > 64 µg/mL
Compound: Cc1[nH]c(C(=O)Nc2nc3c(OCc4cccc(F)c4)cc(C(=O)O)cc3s2)c(Cl)c1Cl [Example 30, 2-(3,4-dichloro-5-methyl-1H-pyrrole-2-carboxamido)-4-((3-fluorobenzyl)oxy)benzo[d]thiazole-6-carboxylic acid]

Compound: Cc1[nH]c(C(=O)Nc2nc3c(OCc4ccsc4)cc(C(=O)O)cc3s2)c(Cl)c1Cl [Example 31, 2-(3,4-dichloro-5-methyl-1H-pyrrole-2-carboxamido)-4-(thiophen-3-ylmethoxy)benzo[d]thiazole-6-carboxylic acid]
IC50 [1]: < 5 nM
IC50 [2]: < 20 nM
IC50 [3]: < 400 nM
IC50 [4]: < 400 nM
MIC [5]: 0.25 µg/mL (≈ 0.518 µM)
MIC [7]: 0.0156 µg/mL (≈ 0.0323 µM)
MIC [8]: 4 µg/mL (≈ 8.29 µM)

Compound: Cc1[nH]c(C(=O)Nc2nc3c(OCc4cccs4)cc(C(=O)O)cc3s2)c(Cl)c1Cl [Example 32, 2-(3,4-dichloro-5-methyl-1H-pyrrole-2-carboxamido)-4-(thiophen-2-ylmethoxy)benzo[d]thiazole-6-carboxylic acid]
IC50 [1]: < 5 nM
IC50 [2]: < 20 nM
IC50 [3]: < 400 nM
IC50 [4]: < 400 nM
MIC [5]: 0.065 µg/mL (≈ 0.135 µM)
MIC [7]: 0.0163 µg/mL (≈ 0.0337 µM)
MIC [8]: 8 µg/mL (≈ 16.6 µM)

Compound: Cc1[nH]c(C(=O)Nc2nc3c(N4CCCC4)cc(C(=O)O)cc3s2)c(Cl)c1Cl [Example 37, 2-(3,4-dichloro-5-methyl-1H-pyrrole-2-carboxamido)-4-(pyrrolidin-1-yl)benzo[d]thiazole-6-carboxylic acid]
IC50 [1]: < 5 nM
IC50 [2]: < 20 nM
IC50 [3]: < 400 nM
IC50 [4]: < 400 nM
MIC [5]: 0.25 µg/mL (≈ 0.569 µM)
MIC [7]: 0.125 µg/mL (≈ 0.285 µM)
MIC [8]: 16 µg/mL (≈ 36.4 µM)

Compound: Cc1[nH]c(C(=O)Nc2nc3c(-c4ccccc4)cc(C(=O)O)cc3s2)c(Cl)c1Cl [Example 44, 2-(3,4-dichloro-5-methyl-1H-pyrrole-2-carboxamido)-4-phenylbenzo[d]thiazole-6-carboxylic acid]
IC50 [1]: < 5 nM
IC50 [2]: < 20 nM
IC50 [3]: < 400 nM
IC50 [4]: < 400 nM
MIC [5]: 0.0312 µg/mL (≈ 0.07 µM)
MIC [7]: 0.023 µg/mL (≈ 0.0515 µM)
MIC [8]: > 64 µg/mL
